Patent publication US20260285809A1, “CRYSTAL OF N-(BENZOYL)-PHENYLALANINE COMPOUND, AND PHARMACEUTICAL COMPOSITION THEREOF, AND PREPARATION METHOD THEREFOR AND USE THEREOF” (Hangzhou Apeloa Medicine Research Institute Co., Ltd., priority 2022, published 2026)
Values after ≈ are worked out from the molar mass of the structure shown.

What was measured:
Format in all cases: physicochemical
[1] = Solid-state stability under high temperature, high humidity, light exposure and acceleration conditions (HPLC purity, XRPD form); details: for remaining at 168 h / remaining at 360 h: solid state
Source text: Sample on the 7th and 15th day to observe the color change of the samples. Analyze the sample purity and crystal form through HPLC and XPRD detection, respectively.
Sample on the 15th day to observe the color change of the sample. Analyze the sample purity and crystal form through HPLC and XPRD detection, respectively.

[2] = Solubility in biological media (FaSSIF, FeSSIF), HPLC detection; details: for solubility at 0.5 h / solubility at 2 h / solubility at 24 h / Solubility: 37° C.
Protocol: (§1) Add 20 mg of the sample (the compound shown by Formula (I) in the form of Crystal Form A) into a 10 ml conical tube, and then add 4 ml of water or biological medium (FeSSIF (pH 5.0) or FaSSIF (pH 6.5)), respectively. Shake the solution at 37° C. for 24 h in a constant temperature bath at 1000 rpm, and take samples at 0.5 h, 2 h and 24 h, respectively. Filter the samples through an aquo-system microporous filter membrane and discard the initial filtrate to obtain the test solution.
Perform an HPLC detection for the test solution ([…]), and calculate the sample concentration according to the standard curve method.
as §1, with “(II)” for “(I)”, “B)” for “A)”

[3] = Hygroscopicity by dynamic moisture absorber (DVS); details: for Weight gain at 80% RH: DVS, 25° C.; for Hygroscopicity (definition criteria for hygroscopic weight gain): from weight gain at 80% RH
Protocol: The humidity change for each gradient within 0%~90% is 10%. Airflow: 200 ml/min; temperature: 25° C.; testing point: one testing point taken every 10% increase in humidity.
Take an appropriate amount of the test sample (the compound shown by Formula (I) in the form of Crystal Form A) to test its hygroscopicity with a dynamic moisture absorber.
Take an appropriate amount of the test sample (the compound shown by Formula (II) in the form of Crystal Form B) to test its hygroscopicity with a dynamic moisture absorber.

[4] = Acceleration 40° C./75% RH, 15d

With O=C(N[C@@H](Cc1ccc(N2C(=O)C3(CC3)c3ccc(F)c(F)c32)cc1)C(=O)O)c1c(F)cccc1Cl [Crystal Form A, (S)-2-(2-chloro-6-fluorobenzoyl amido)-3-(4-(6′,7′-difluoro-2′-oxospiro [cyclopropane-1,3′-indoline]-1′-yl)phenyl) propionic acid] the “Change in purity and crystal form (in words)” value ([1]; 15 days at 60° C., 92.5% RH, 4500 lux and 40° C./75% RH) was “no significant changes”, the “Crystal form (XRPD)” value ([1]; Acceleration 40° C./75% RH, 7d) was “Unchanged” and the “Crystal form (XRPD)” value [1, 4] was “Unchanged”. The “Crystal form (XRPD)” value ([1]; High humidity 92.5% RH, 7d) was “Unchanged”, the “Crystal form (XRPD)” value ([1]; High humidity 92.5% RH, 15d) was “Unchanged” and the “Crystal form (XRPD)” value ([1]; High temperature 60° C., 7d) was “Unchanged”. The “Crystal form (XRPD)” value ([1]; High temperature 60° C., 15d) was “Unchanged”, the “Crystal form (XRPD)” value ([1]; Light exposure 4500 lux, 7d) was “Unchanged” and the “Crystal form (XRPD)” value ([1]; Light exposure 4500 lux, 15d) was “Unchanged”. The remaining at 168 h ([1]; Acceleration 40° C./75% RH, 7d) was 99.4%, the remaining at 360 h [1, 4] was 99.4% and the remaining at 168 h ([1]; High humidity 92.5% RH, 7d) was 99.3%. It also gave a remaining at 360 h ([1]; High humidity 92.5% RH, 15d) of 99.3%, a remaining at 168 h ([1]; High temperature 60° C., 7d) of 99.4% and a remaining at 360 h ([1]; High temperature 60° C., 15d) of 99.4%. It also gave a remaining at 168 h ([1]; Light exposure 4500 lux, 7d) of 99.2%, a remaining at 360 h ([1]; Light exposure 4500 lux, 15d) of 99.2% and a solubility at 0.5 h ([2]; FaSSIF (pH 6.5), 0.5 h) of 2130 µg/mL (≈ 4140 µM). It also gave a solubility at 2 h ([2]; FaSSIF (pH 6.5), 2 h) of 2230 µg/mL (≈ 4330 µM), a solubility at 24 h ([2]; FaSSIF (pH 6.5), 24 h) of 2220 µg/mL (≈ 4310 µM) and a solubility at 0.5 h ([2]; FeSSIF (pH 5.0), 0.5 h) of 460 µg/mL (≈ 893 µM). The solubility at 2 h ([2]; FeSSIF (pH 5.0), 2 h) was 480 µg/mL (≈ 932 µM), the solubility at 24 h ([2]; FeSSIF (pH 5.0), 24 h) was 490 µg/mL (≈ 952 µM) and the “Solubility in FeSSIF and FaSSIF (in words)” value (shortened to “Solubility … (in words)”) [2] was “good solubility”. For the same molecule, the “Solubility … (in words)” value ([2]; listed as Crystal form A) was “relatively good”, the “Weight gain at 80% RH” value [3] was 0.09% and the “Hygroscopicity (definition criteria for hygroscopic weight gain)” value [3] was “no or almost no hygroscopicity”.
With O=C(N[C@@H](Cc1ccc(N2C(=O)C3(CC3)c3ccc(F)c(F)c32)cc1)C(=O)O)c1c(F)cccc1Cl [Crystal Form B, (S)-2-(2-chloro-6-fluorobenzoyl amido)-3-(4-(6′,7′-difluoro-2′-oxospiro [cyclopropane-1,3′-indoline]-1′-yl)phenyl) propionic acid] the Solubility ([2]; FaSSIF (pH 6.5), 0.5 h) was 3187 µg/mL (≈ 6190 µM), the Solubility ([2]; FaSSIF (pH 6.5), 2 h) was 2961 µg/mL (≈ 5750 µM) and the Solubility ([2]; FaSSIF (pH 6.5), 24 h) was 2791 µg/mL (≈ 5420 µM). The Solubility ([2]; FeSSIF (pH 5.0), 0.5 h) was 869 µg/mL (≈ 1690 µM), the Solubility ([2]; FeSSIF (pH 5.0), 2 h) was 815 µg/mL (≈ 1580 µM) and the Solubility ([2]; FeSSIF (pH 5.0), 24 h) was 734 µg/mL (≈ 1430 µM). For the same molecule, the “Solubility … (in words)” value [2] was “relatively good”, the “Weight gain at 80% RH” value [3] was 0.71% and the “Hygroscopicity (definition criteria for hygroscopic weight gain)” value [3] was “slight hygroscopicity”.
